According to US20260158014A1, “METHODS OF ADMINISTERING VOXELOTOR” (Global Blood Therapeutics, Inc., priority 2021, published 2026):
“Also recorded” adds a separate entry of the source.

Assays:
CYP3A4 = CYP3A4 (Homo sapiens, UniProt P08684); assay: Clinical probe-substrate DDI study: midazolam; details: human, in vivo
Description: (§1) The effect of voxelotor on the pharmacokinetics (PK) of a single dose of caffeine, warfarin sodium, omeprazole, and midazolam hydrochloride, which are probe substrates for cytochrome P450 (CYP)1A2, CYP2C9, CYP2C19, and CYP3A4, respectively, were studied in healthy subjects. During Period 1, subjects received a single dose of caffeine 100 mg, warfarin sodium 10 mg+vitamin K 10 mg, omeprazole 20 mg, and midazolam hydrochloride 2 mg on Day 1. During Period 2, subjects received voxelotor 900 mg QD on Days 1 and 2 followed by 600 mg QD on Day 3, a single dose of caffeine 100 mg, warfarin sodium 10 mg+vitamin K 10 mg, omeprazole 20 mg, and midazolam hydrochloride 2 mg on Day 4, and voxelotor 600 mg QD on Days 4 through 7.
(§2) Whole blood and plasma concentrations of voxelotor and plasma concentrations of caffeine, paraxanthine, S-warfarin, omeprazole, 5-hydroxyomeprazole, midazolam, and 1-hydroxymidazolam were determined using validated assays.

CYP1A2 = CYP1A2 (Homo sapiens, UniProt P05177); assay: Clinical probe-substrate DDI study: caffeine; format: in vivo
Sequence of CYP1A2 (P05177 whole entry): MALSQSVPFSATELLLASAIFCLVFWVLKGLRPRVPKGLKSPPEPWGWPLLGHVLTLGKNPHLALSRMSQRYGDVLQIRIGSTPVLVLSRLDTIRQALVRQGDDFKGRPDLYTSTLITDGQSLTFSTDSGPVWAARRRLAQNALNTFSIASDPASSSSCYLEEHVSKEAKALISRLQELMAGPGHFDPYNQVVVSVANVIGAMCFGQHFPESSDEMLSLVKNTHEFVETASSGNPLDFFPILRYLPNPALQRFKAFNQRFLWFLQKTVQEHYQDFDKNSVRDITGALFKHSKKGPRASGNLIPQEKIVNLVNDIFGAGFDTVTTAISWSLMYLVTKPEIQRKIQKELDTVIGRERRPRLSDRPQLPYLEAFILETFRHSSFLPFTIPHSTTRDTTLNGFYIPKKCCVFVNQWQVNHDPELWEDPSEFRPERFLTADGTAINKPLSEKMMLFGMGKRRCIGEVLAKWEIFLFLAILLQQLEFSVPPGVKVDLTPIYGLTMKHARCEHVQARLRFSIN
Description: as §1, §2

CYP2C9 = target: T1, CYP2C9 (Homo sapiens, UniProt P11712); assay: Clinical probe-substrate DDI study: S-warfarin; format: in vivo
T1 construct: endogenous in cells; host or cells: healthy human subjects (in vivo)
T1 sequence (P11712 whole entry): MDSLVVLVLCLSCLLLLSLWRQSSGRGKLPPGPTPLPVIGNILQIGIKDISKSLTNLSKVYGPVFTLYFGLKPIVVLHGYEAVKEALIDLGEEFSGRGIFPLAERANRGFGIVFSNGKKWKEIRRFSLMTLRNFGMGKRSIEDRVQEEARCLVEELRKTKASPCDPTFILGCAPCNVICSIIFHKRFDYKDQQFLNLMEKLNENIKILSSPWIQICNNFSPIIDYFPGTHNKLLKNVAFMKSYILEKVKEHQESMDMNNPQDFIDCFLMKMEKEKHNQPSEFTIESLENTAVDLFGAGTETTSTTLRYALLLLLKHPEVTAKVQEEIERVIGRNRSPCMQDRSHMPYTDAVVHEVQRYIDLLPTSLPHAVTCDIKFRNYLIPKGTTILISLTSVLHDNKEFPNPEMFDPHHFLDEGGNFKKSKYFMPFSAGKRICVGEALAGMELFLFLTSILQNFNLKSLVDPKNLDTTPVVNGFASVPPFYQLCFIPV
Description: as §1, §2

pregnant rabbits = assay: Embryo-fetal development study in rabbits; format: in vivo, rabbit; details: oral 25, 75, 150 mg/kg/day, gestation days 7 through 19
Description: In embryo-fetal development studies, voxelotor was administered orally to pregnant rats at 15, 50, and 250 mg/kg/day (gestation days 7 through 17) and rabbits at 25, 75, and 150 mg/kg/day (gestation days 7 through 19) through organogenesis.

[1] = 72-week population pharmacokinetic analysis in patients with SCD; format: in vivo, human
[2] = PK in subjects with renal impairment; format: in vivo, human
Description: Following a single 900 mg dose of voxelotor, whole blood exposures in subjects with severe renal impairment (eGFR <30 mL/min/1.73 m^2) were 25% lower compared to healthy controls.

[3] = PK in subjects with hepatic impairment; format: in vivo, human
[4] = Clinical DDI: acid reducing agent omeprazole on voxelotor; details: in vivo
CYP2C8 = target: T2, CYP2C8 (Homo sapiens, UniProt P10632); assay: Effect of voxelotor on CYP450 enzymes in vivo: CYP2C8
T2 construct: endogenous in cells; host or cells: human subjects (in vivo)

CYP2D6 = target: T3, CYP2D6 (Homo sapiens, UniProt P10635); assay: Effect of voxelotor on CYP450 enzymes in vivo: CYP2D6
T3 construct: endogenous in cells; host or cells: human subjects (in vivo)

CYP2B6 = CYP2B6 (Homo sapiens, UniProt P20813); assay: In vitro CYP enzyme study; format: in vitro ADME
Sequence of CYP2B6 (P20813 whole entry, species assumed): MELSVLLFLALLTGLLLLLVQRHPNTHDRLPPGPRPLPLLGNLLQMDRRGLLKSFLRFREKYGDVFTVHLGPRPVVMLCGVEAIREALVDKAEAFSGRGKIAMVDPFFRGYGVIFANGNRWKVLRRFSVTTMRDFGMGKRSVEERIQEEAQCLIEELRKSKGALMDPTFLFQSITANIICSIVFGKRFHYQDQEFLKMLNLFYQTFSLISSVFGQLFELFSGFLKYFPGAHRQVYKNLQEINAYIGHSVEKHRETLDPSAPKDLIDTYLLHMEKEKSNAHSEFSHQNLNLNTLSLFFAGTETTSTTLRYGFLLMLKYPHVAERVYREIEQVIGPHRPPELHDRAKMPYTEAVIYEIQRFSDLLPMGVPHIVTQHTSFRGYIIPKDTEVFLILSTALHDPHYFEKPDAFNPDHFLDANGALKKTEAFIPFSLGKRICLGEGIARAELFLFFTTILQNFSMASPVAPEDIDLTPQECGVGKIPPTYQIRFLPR

P-gp = P-gp (Homo sapiens, UniProt P08183); assay: In vitro transporter study; format: in vitro ADME
Sequence of P-gp (P08183 whole entry): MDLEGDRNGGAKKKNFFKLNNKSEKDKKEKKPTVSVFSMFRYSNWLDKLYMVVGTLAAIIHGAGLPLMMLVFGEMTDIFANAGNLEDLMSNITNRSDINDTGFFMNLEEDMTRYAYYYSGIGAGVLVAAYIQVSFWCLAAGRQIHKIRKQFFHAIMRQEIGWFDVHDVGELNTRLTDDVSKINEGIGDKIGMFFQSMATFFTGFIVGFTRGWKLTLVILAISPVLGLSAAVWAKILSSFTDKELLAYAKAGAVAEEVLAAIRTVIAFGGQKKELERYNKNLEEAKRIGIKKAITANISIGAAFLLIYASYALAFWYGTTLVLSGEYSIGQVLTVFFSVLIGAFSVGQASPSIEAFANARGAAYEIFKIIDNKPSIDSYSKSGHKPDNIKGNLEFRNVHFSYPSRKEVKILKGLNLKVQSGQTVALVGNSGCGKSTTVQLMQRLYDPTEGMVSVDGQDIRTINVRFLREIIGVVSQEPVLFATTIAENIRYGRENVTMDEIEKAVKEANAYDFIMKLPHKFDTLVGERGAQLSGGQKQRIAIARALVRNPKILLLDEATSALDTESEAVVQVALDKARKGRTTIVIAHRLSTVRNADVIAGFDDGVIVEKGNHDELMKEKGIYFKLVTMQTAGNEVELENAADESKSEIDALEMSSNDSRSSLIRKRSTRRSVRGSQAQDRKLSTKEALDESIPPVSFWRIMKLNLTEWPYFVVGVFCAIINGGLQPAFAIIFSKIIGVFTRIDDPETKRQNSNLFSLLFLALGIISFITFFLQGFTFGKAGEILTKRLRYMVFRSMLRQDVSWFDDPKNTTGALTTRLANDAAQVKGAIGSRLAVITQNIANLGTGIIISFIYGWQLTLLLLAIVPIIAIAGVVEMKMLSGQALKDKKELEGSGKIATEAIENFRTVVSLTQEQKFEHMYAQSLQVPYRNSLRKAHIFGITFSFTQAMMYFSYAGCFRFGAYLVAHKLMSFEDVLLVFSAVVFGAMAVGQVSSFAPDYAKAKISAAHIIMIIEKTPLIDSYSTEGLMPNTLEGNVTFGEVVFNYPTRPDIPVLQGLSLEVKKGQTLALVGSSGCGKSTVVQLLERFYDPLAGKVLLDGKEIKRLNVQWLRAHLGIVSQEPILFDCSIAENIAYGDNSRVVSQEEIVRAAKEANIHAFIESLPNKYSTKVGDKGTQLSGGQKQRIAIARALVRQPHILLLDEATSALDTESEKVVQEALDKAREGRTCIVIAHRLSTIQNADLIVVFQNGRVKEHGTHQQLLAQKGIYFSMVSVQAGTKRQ

BCRP = BCRP (Homo sapiens, UniProt Q9UNQ0); assay: In vitro transporter study; format: in vitro ADME
Sequence of BCRP (Q9UNQ0 whole entry, species assumed): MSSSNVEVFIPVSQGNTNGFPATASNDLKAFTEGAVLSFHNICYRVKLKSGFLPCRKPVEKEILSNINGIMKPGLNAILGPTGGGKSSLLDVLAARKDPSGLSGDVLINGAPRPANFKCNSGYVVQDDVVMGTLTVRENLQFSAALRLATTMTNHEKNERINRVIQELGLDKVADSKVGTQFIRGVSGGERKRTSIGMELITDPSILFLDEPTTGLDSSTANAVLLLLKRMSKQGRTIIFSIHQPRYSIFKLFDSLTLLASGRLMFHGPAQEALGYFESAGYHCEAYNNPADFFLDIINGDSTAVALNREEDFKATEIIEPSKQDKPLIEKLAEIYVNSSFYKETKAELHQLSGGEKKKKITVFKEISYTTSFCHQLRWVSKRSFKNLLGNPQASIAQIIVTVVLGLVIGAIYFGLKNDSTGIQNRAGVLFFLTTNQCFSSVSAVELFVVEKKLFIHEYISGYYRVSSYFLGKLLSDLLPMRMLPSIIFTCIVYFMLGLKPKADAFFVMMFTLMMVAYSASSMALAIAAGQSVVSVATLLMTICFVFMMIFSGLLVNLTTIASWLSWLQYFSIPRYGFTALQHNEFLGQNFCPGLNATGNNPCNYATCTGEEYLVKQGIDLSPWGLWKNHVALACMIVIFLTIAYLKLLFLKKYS

OATP1B1 = OATP1B1 (Homo sapiens, UniProt Q9Y6L6); assay: In vitro transporter study; format: in vitro ADME
Sequence of OATP1B1 (Q9Y6L6 whole entry, species assumed): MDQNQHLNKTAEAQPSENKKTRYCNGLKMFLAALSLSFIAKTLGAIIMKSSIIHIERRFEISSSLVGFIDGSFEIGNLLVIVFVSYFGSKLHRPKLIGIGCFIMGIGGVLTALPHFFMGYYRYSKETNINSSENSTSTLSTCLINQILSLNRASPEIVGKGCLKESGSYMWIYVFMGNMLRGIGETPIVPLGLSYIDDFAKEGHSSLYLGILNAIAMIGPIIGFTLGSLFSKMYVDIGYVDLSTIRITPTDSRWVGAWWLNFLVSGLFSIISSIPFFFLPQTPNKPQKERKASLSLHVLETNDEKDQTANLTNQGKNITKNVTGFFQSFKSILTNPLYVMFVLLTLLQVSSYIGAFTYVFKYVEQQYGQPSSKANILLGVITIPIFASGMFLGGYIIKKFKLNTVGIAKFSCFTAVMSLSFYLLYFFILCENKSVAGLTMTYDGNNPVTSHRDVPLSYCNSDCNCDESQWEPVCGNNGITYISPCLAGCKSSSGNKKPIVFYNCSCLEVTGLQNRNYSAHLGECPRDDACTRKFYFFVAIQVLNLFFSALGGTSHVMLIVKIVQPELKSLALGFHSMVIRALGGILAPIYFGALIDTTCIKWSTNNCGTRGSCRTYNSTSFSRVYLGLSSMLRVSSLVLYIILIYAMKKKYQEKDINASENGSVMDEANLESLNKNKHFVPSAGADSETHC

OCT2 = OCT2 (Homo sapiens, UniProt O15244); assay: In vitro transporter study; format: in vitro ADME
OAT1 = OAT1 (Homo sapiens, UniProt Q4U2R8); assay: In vitro transporter study; format: in vitro ADME
MATE1 = MATE1 (Homo sapiens, UniProt Q96FL8); assay: In vitro transporter study; format: in vitro ADME
MATE2-K = MATE2-K (Homo sapiens, UniProt Q86VL8); assay: In vitro transporter study; format: in vitro ADME
OATP1A2 = OATP1A2 (Homo sapiens, UniProt P46721); assay: In vitro transporter study; format: in vitro ADME
[5] = tested on: bacterial reverse mutation; assay: Reverse mutation bacterial (Ames) test; format: cell-based
rat = assay: Rat Comet assay; details: in vivo
[6] = tested on: patients with SCD aged 4 to 11 years; assay: Open-label Phase 2 trial (part C): safety assessment (TEAEs)
[7] = 4 to 11 years, n=45, listed as OXBRYTA

Sequence of CYP3A4 (P08684 whole entry): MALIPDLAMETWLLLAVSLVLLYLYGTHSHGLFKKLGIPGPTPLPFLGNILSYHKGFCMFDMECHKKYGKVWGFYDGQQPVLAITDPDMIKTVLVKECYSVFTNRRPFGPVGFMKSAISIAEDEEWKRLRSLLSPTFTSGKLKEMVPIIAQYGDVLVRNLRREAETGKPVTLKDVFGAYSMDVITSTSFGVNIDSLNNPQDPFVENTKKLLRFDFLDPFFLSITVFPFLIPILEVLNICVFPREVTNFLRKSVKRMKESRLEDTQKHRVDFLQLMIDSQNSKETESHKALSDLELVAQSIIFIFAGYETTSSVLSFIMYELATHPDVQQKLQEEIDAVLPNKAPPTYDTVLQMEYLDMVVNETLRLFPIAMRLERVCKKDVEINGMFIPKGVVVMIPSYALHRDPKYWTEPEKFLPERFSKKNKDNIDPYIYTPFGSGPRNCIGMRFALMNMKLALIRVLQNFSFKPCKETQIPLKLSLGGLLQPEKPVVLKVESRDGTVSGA

## CC(C)n1nccc1-c1ncccc1COc1cccc(O)c1C=O [voxelotor, 2-hydroxy-6-((2-(1-isopropyl-1H-pyrazol-5-yl)pyridin-3-yl)methoxy)benzaldehyde]
CYP3A4
  CYP3A4 inhibition in vivo: inhibits
  CYP3A4 inhibitor classification: moderate inhibitor
CYP1A2; healthy subjects, voxelotor 900/600 mg QD, caffeine 100 mg
  effect of voxelotor on PK of CYP1A2 probe substrate caffeine: no clinically meaningful effect
CYP1A2; human, in vivo
  CYP1A2 inhibition in vivo: not
CYP2C9; healthy subjects, voxelotor 900/600 mg QD, warfarin sodium 10 mg
  effect of voxelotor on PK of CYP2C9 probe substrate S-warfarin: no clinically meaningful effect
CYP2C9; human, in vivo
  CYP2C9 inhibition in vivo: not
Pregnant rabbits
  developmental outcome: no adverse developmental effects; also recorded: no evidence of adverse developmental outcomes
[1]; 1,500 mg, geometric mean
  AUC0-24 h, whole blood: 3,830 μg · hr/mL
  Cmax, whole blood: 180 µg/mL
[1]; human, in vivo
  differences in PK based on age (12 to 59 years), sex, body weight (28 to 135 kg), mild to severe renal impairment: No clinically significant differences
[1]; human, plasma, oral, 1500 mg, 1,500 mg, geometric mean
  Cmax: 14000 ng/mL
[1]; human, plasma, oral, 1500 mg, 1,500 mg, geometric mean, patients with SCD, read-out: Half-life (terminal elimination), plasma (converted)
  half-life: 2320 min
[1]; human, plasma, oral, 1500 mg, 1,500 mg, geometric mean, read-out: AUC0-24 h, plasma
  AUC(0-t): 278 µg·h/mL
[1]; human, plasma, oral, read-out: apparent volume of distribution of the central compartment
  Vd: 333 L
[1]; plasma
  apparent volume of distribution of the peripheral compartment: 72.3 L
[1]; plasma, patients with SCD
  apparent oral clearance: 6.1 L/h
[1]; recommended dosage
  exposures in whole blood and plasma, pediatric patients 4 to <17 years vs adults: similar
[2]; human, in vivo
  effect of renal function on excretion: no clinically significant effect
[2]; single 900 mg dose
  unbound plasma concentrations, severe renal impairment vs healthy controls: comparable
[2]; single 900 mg dose, eGFR <30 mL/min/1.73 m^2
  whole blood exposures lower in severe renal impairment vs healthy controls: 25%
[3]; Child Pugh A
  whole blood AUC higher vs normal hepatic function, mild hepatic impairment: 14%
[3]; Child Pugh B
  whole blood AUC higher vs normal hepatic function, moderate hepatic impairment: 15%
[3]; Child Pugh C
  whole blood AUC higher vs normal hepatic function, severe hepatic impairment: 90%
[4]
  effect of omeprazole (proton pump inhibitor) on voxelotor exposure: did not alter voxelotor exposure
CYP2C8
  CYP2C8 inhibition in vivo: not
CYP2D6
  CYP2D6 inhibition in vivo: not
CYP2B6
  CYP2B6 induction: inducer
  CYP2B6 inhibition: reversible and time-dependent inhibitor
P-gp
  P-gp inhibition: not an inhibitor
  substrate of P-gp: not a substrate
BCRP
  BCRP inhibition: not an inhibitor
  substrate of BCRP: not a substrate
OATP1B1
  OATP1B1 inhibition: not an inhibitor
  substrate of OATP1B1: not a substrate
OCT2
  OCT2 inhibition: not an inhibitor
OAT1
  OAT1 inhibition: not an inhibitor
MATE1
  MATE1 inhibition: not an inhibitor
MATE2-K
  MATE2-K inhibition: not an inhibitor
OATP1A2
  substrate of OATP1A2: not a substrate
[5]
  genotoxicity, Ames test: not genotoxic
rat
  genotoxicity, rat Comet assay: not genotoxic
[6]; 4-11 years, n=45, week 24
  Any drug-related TEAE: 22 (48.9) n (%)
  Drug-related AE: Abdominal pain: 4 (8.9) n (%)
  Drug-related AE: Diarrhea: 5 (11.1) n (%)
  Drug-related AE: Headache: 2 (4.4) n (%)
  Drug-related AE: Hypersplenism: 2 (4.4) n (%)
  Drug-related AE: Pyrexia: 2 (4.4) n (%)
  Drug-related AE: Rash: 5 (11.1) n (%)
  Drug-related AE: Transaminases increased: 4 (8.9) n (%)
  Drug-related AE: Vomiting: 5 (11.1) n (%)
[6]; 4 to 11 years, median exposure 43.3 weeks
  tolerability of weight-based dosing: well tolerated
[6]; 4 to 11 years, n=45
  deaths: no deaths
  drug-related TEAE diarrhea, patients: 11%
  drug-related TEAE rash, patients: 11%
  drug-related TEAE vomiting, patients: 11%
  pyrexia, patients (non-SCD related TEAE / adverse reaction): 35.6%
  rash, patients (non-SCD related TEAE / adverse reaction): 20%
  vomiting, patients (non-SCD related TEAE / adverse reaction): 33.3%
[6]; [7]
  pyrexia, patients (non-SCD related TEAE / adverse reaction): 36%
  vomiting, patients (non-SCD related TEAE / adverse reaction): 33%
[6]; 4 to <12 years, n=45
  abdominal pain, patients (adverse reaction): 18%
  diarrhea, patients (adverse reaction): 18%
  headache, patients (adverse reaction): 18%
[6]; of 45 patients, 2 drug-related, 2 unrelated
  patients who discontinued voxelotor due to adverse events: 4 patients
